# According to ChEMBL document CHEMBL1151020, “Synthesis of neoeudistomin analogsAs potential filaricides” (1995):
# Columns and labels:
# Type in all cases: functional
# Conditions in all cases: route intraperitoneal
# [1] = Antifilarial (Microfilariae) activity (mf) against Litomosoides carinii in cotton rats at a dose of 30 mg/kg for 5 days by ip administration; Inactive
# [2] = Macrofilaricidal activity (maf) against Acanthocheilonema viteae in Mastomys natalensis at a dose of 30 mg/kg for 5 days by ip administration; Inactive
# [3] = Macrofilaricidal activity (maf) against Litomosoides carinii in cotton rats at a dose of 30 mg/kg for 5 days by ip administration; Inactive
# Rattus norvegicus [4] = assay: Antifilarial (Microfilariae) activity (mf) against Litomosoides carinii in cotton rats at a dose of 30 mg/kg for 5 days by ip administration
# Rattus norvegicus [5] = assay: Antifilarial (Microfilariae) activity (mf) against Acanthocheilonema viteae in Mastomys natalensis at a dose of 350 mg/kg for 5 days by ip administration
SMILES,Activity [1],Activity [2],Activity [3],Activity (Rattus norvegicus [4]),Activity (Rattus norvegicus [5])
c1coc(-c2nccc3c2[nH]c2ccccc23)c1,0,0,–,–,–
c1csc(C2NCCc3c2[nH]c2ccccc32)c1 (stereo unspecified),0,–,0,–,–
c1coc(C2NCCc3c2[nH]c2ccccc32)c1 (stereo unspecified),0,–,0,–,–
c1ccc2c3c([nH]c2c1)C(c1ccsc1)NCC3 (stereo unspecified),0,–,0,–,–
c1c[nH]c(-c2nccc3c2[nH]c2ccccc23)c1,–,0,–,73,–
c1csc(-c2nccc3c2[nH]c2ccccc23)c1,0,0,0,–,–
CCN(CC)C(=O)N1CCN(C)CC1.O=C(O)CC(O)(CC(=O)O)C(=O)O [DIETHYLCARBAMAZINE CITRATE],–,0,0,–,>90
